The values that follow come from patent US20080300314A1, “Cooling Compounds” (Givaudan SA, priority 2003, published 2008).

Holding throughout (type): in vivo, human
Test [1] relates to panelists. The experiment in a line: Panel taste test: longevity of cooling in the mouth (Table 1). To be noted: solutions tasted at the chosen concentration; time until no cooling could be sensed in the mouth. An excerpt: In a second experiment, the same panel was asked to taste the solutions at the chosen concentrations and to record the cooling intensity at regular time intervals until no cooling could be sensed in the mouth.

Test [2] has as its system panelists. The test can be described thus: Panel taste test: concentration with cooling intensity similar or slightly higher than menthol at 2 ppm (Table 1). To be noted: solution judged to have cooling intensity similar or slightly higher than menthol at 2 ppm; tasted by small panel.
For another test, the system named is mouth. The test can be described thus: Application in toothpaste. The following applies: toothgel with 2.5 g per 100 g of a 2% solution in PG; teeth brushed, mouth rinsed with water. An excerpt:
[table] The materials are mixed in the toothgel, and a panelist's teeth are brushed using this toothgel. The mouth is rinsed with water and the water spit out. […] The cooling perception lasts for several hours.

In test [3] the test system is panelists. The test can be described thus: Testing of compounds: panel tasting of aqueous solutions against menthol at 2 ppm (Table 2). To be noted: for Concentration [ppm]: aqueous solution (compound dissolved in ethanol at 1% by weight, then dosed into water), cooling intensity similar to or slightly higher than menthol at 2 ppm; for Description: panel description of the aqueous solution at the concentration listed in Table 2, reference menthol 2 ppm. An excerpt: A small group of panelists were asked to taste various aqueous solutions of compounds. The compounds were first dissolved in ethanol at 1% by weight and then dosed into water.

In the case of `CC1CCC(C(C)C)C(C(=O)Nc2ccc(CC#N)cc2)C1` (centres unmarked) [Example 1, N-(4-cyanomethylphenyl) p-menthanecarboxamide], in the test with panelists [1], the Longevity is 93 min. Also, in the test on panelists [2], the Concentration amounted to 0.2 ppm.
The corresponding values for `CC(C)[C@@H]1CC[C@@H](C)C[C@H]1O` [Example 1-Menthol, (1R, 2S, 5R)-2-isopropyl-5-methyl-cyclohexanol, reference compound] are 35 min and 2.0 ppm.
On to `CC1CCC(C(C)C)C(C(=O)Nc2ccc(S(N)(=O)=O)cc2)C1` (centres unmarked) [Example 2, N-(4-sulfamoylphenyl) p-menthanecarboxamide], for which, in the test on mouth, the “Cooling sensation felt in the mouth” value is reported as “intense cooling sensation” and the “Duration of cooling perception” value was “several hours”.
With `CC1CCC(C(C)C)C(C(=O)Nc2ccc(C#N)cc2)C1` (centres unmarked) [Example 3, N-(4-cyanophenyl) p-menthanecarboxamide], the Longevity with panelists [1] came to 90 min. This molecule registered a Concentration with panelists [2] of 0.5 ppm.
Regarding `CC(C)Oc1ccc(CNC(=O)[C@@H]2C[C@H](C)CC[C@H]2C(C)C)cc1` [Example 7, (1R,2S,5R)-N-(4-isopropoxybenzyl)-2-isopropyl-5-methylcyclohexanecarboxamide], the “Concentration [ppm]” value in the test with panelists [3] was 0.01 ppm.
In the case of `COC(=O)c1ccc(NC(=O)[C@@H]2C[C@H](C)CC[C@H]2C(C)C)cc1OC` [Example 9, methyl 4-((1R,2S,5R)-2-isopropyl-5-methylcyclohexane-carboxamido)-2-methoxybenzoate], the “Concentration [ppm]” value in the test on panelists [3] is 0.005 ppm.
With `COC(=O)c1ccc(NC(=O)[C@@H]2C[C@H](C)CC[C@H]2C(C)C)cc1` [Example 15, methyl 4-((1R,2S,5R)-2-isopropyl-5-methylcyclohexane-carboxamido)benzoate], in the test on panelists [3], the “Concentration [ppm]” value worked out at 2 ppm and the Description entry is “slightly cooling, flat cooling”.
As to `CCOC(=O)c1ccc(NC(=O)[C@@H]2C[C@H](C)CC[C@H]2C(C)C)cc1` [Example 16, ethyl 4-((1R,2S,5R)-2-isopropyl-5-methylcyclohexane-carboxamido)benzoate], in the test with panelists [3], the “Concentration [ppm]” value worked out at 2 ppm and the Description result is “Cooling similar to menthol”.
For `CC(C)[C@@H]1CC[C@@H](C)C[C@H]1C(=O)Nc1ccc(C=O)cc1` [Example 19, (1R,2S,5R)-N-(4-formylphenyl)-2-isopropyl-5-methylcyclo-hexanecarboxamide], in the test on panelists [3], the “Concentration [ppm]” value is 2 ppm; the Description entry was “cooling builds and lingers”.
On to `CC(C)[C@@H]1CC[C@@H](C)C[C@H]1C(=O)Nc1ccc(C(=O)O)cc1` [Example 23, 4-((1R,2S,5R)-2-isopropyl-5-methylcyclohexane-carboxamido)benzoic acid], for which, in the test on panelists [3], the “Concentration [ppm]” value came to 2 ppm and the Description entry is listed as “slightly burning then cooling”.
On to `CC(C)[C@@H]1CC[C@@H](C)C[C@H]1C(=O)NCc1ccc(C(=O)O)cc1` [Example 24, 4-(((1R,2S,5R)-2-isopropyl-5-methylcyclohexane-carboxamido)methyl)benzoic acid], for which, in the test on panelists [3], the “Concentration [ppm]” value worked out at 2 ppm and the Description result is given as “little cooling, slightly refreshing”.
Consider `CC(C)[C@@H]1CC[C@@H](C)C[C@H]1C(=O)NCc1ccc(C#N)cc1` [Example 25, (1R,2S,5R)-N-(4-cyanobenzyl)-2-isopropyl-5-methylcyclohexanecarboxamide], for which, in the test with panelists [3], the “Concentration [ppm]” value came to 2 ppm and the Description entry is listed as “good icy cooling, slightly astringent”.
Turning to `CC(C)[C@@H]1CC[C@@H](C)C[C@H]1C(=O)NCc1ccc(S(N)(=O)=O)cc1` [Example 27, (1R,2S,5R)-2-isopropyl-5-methyl-N-(4-sulfamoylbenzyl)-cyclohexanecarboxamide], the “Concentration [ppm]” value in the test with panelists [3] was 2 ppm.
With `CC(C)[C@@H]1CC[C@@H](C)C[C@H]1C(=O)NCc1ccc(C(=O)O)cc1` [Example 28, 4-(((1R,2S,5R)-2-isopropyl-5-methyl-cyclohexanecarboxamido)-methyl)benzoic acid], in the test with panelists [3], the “Concentration [ppm]” value is 2 ppm and the Description entry is listed as “strong cooling up front, peppery heat”.
Consider `CCOC(=O)Cc1ccc(NC(=O)[C@@H]2C[C@H](C)CC[C@H]2C(C)C)cc1` [Example 29, ethyl 2-(4-((1R,2S,5R)-2-isopropyl-5-methylcyclohexane-carboxamido)phenyl)acetate], for which, in the test with panelists [3], the “Concentration [ppm]” value is given as 2 ppm and the Description entry is “icy, crisp cool on tongue”.
For the molecule `CC(C)[C@@H]1CC[C@@H](C)C[C@H]1C(=O)Nc1ccccc1C#N` [Example 30, (1R,2S,5R)-N-(2-cyanophenyl)-2-isopropyl-5-methylcyclohexane-carboxamide], in the test with panelists [3], the “Concentration [ppm]” value was 2 ppm and the Description result was “clean, slightly stronger than menthol”.
As to `CC(C)[C@@H]1CC[C@@H](C)CC1C(=O)Nc1cccc(C#N)c1` (stereo partly drawn) [Example 31, (2S,5R)-N-(3-cyanophenyl)-2-isopropyl-5-methylcyclohexane-carboxamide], in the test on panelists [3], the “Concentration [ppm]” value stood at 1 ppm and the Description result was “weak cooling, tingling, numbing on tongue,”.
Consider `CC(C)[C@@H]1CC[C@@H](C)C[C@H]1C(=O)Nc1ccccc1C#N` [Example 32], for which, in the test with panelists [3], the “Concentration [ppm]” value is 2 ppm and the Description result is “mouthcoating, more cooling than menthol”.
Molecule `CCNC(=O)C1CC(C)CCC1C(C)C` (centres unmarked) [N-ethyl p-menthanecarboxamide (WS-3), N-ethyl p-menthanecarboxamide, reference compound] showed a Longevity with panelists [1] of 57 min. In the test on panelists [2], this molecule gave a Concentration of 1.5 ppm.
